Laboratory results from ChEMBL document CHEMBL1201862, “PubChem BioAssay data set” (2004).
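Cultured in 96-well plates, cells were exposed to test compound for 48 hours across five concentrations. At the GI50, growth is halved.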 Calls of active or inactive are those of the source. Cut-off read from the data, not from the text of the source: active = GI50 up to about 1.1 µM and inactive = higher.

Legend:
Assay in all cases: NCI anticancer screen, dose series, 48 h
[1] = test system: HCT-116
[2] = test system: SF-295
[3] = test system: MDA-MB-231
[4] = test system: RXF 393
[5] = test system: ACHN
[6] = test system: UACC-257
[7] = test system: SF-539
[8] = test system: UACC-62
[9] = test system: MOLT-4
[10] = test system: PC-3
[11] = test system: NCI-H522
[12] = test system: HT-29
[13] = test system: HCT-15
[14] = test system: M14
[15] = test system: BT-549
[16] = test system: EKVX
[17] = test system: SK-MEL-5
[18] = test system: U-251
[19] = test system: SR
[20] = test system: NCI/ADR-RES
[21] = test system: K562
[22] = test system: OVCAR-5
[23] = test system: OVCAR-8
[24] = test system: CCRF-CEM
[25] = test system: UO-31
[26] = test system: CAKI-1
[27] = test system: SK-OV-3
[28] = test system: SK-MEL-2
[29] = test system: SK-MEL-28
[30] = test system: DU-145
[31] = test system: HOP-62
[32] = test system: MDA-N
[33] = test system: SNB-19
[34] = test system: SN12C
[35] = test system: OVCAR-3
[36] = test system: OVCAR-4
[37] = test system: SW-620
[38] = test system: KM12
[39] = test system: NCI-H226
[40] = test system: A498
[41] = test system: NCI-H23
[42] = test system: A549
[43] = test system: MCF7
[44] = test system: COLO 205
[45] = test system: T47D
[46] = test system: IGROV-1
[47] = test system: HCC 2998
[48] = test system: Malme-3M
[49] = test system: TK-10
[50] = test system: Hs-578T
[51] = test system: 786-0
[52] = test system: SF-268
[53] = test system: NCI-H460
[54] = test system: SNB-75
[55] = test system: HL-60
[56] = test system: LOX IMVI
[57] = test system: MDA-MB-435
[58] = test system: RPMI-8226

CCCCS(=O)(=O)CCC(N)C(=O)O (stereo not drawn)
GI50 [1]: > 100 µM (inactive)
GI50 [2]: > 100 µM (inactive)
GI50 [3]: > 100 µM (inactive)
GI50 [4]: 36.1 µM (inactive)
GI50 [5]: > 100 µM (inactive)
GI50 [6]: > 100 µM (inactive)
GI50 [7]: > 100 µM (inactive)
GI50 [8]: > 100 µM (inactive)
GI50 [9]: > 100 µM (inactive)
GI50 [10]: > 100 µM (inactive)
GI50 [11]: > 100 µM (inactive)
GI50 [12]: > 100 µM (inactive)
GI50 [13]: > 100 µM
GI50 [14]: > 100 µM (inactive)
GI50 [15]: > 100 µM (inactive)
GI50 [16]: > 100 µM (inactive)
GI50 [17]: > 100 µM (inactive)
GI50 [18]: > 100 µM (inactive)
GI50 [19]: > 100 µM (inactive)
GI50 [20]: > 100 µM (inactive)
GI50 [21]: > 100 µM (inactive)
GI50 [22]: > 100 µM (inactive)
GI50 [23]: > 100 µM (inactive)
GI50 [24]: > 100 µM (inactive)
GI50 [25]: > 100 µM (inactive)
GI50 [26]: > 100 µM (inactive)
GI50 [27]: > 100 µM (inactive)
GI50 [28]: > 100 µM (inactive)
GI50 [29]: > 100 µM (inactive)
GI50 [30]: > 100 µM (inactive)
GI50 [31]: > 100 µM (inactive)
GI50 [32]: > 100 µM (inactive)
GI50 [33]: > 100 µM (inactive)
GI50 [34]: > 100 µM (inactive)
GI50 [35]: > 100 µM (inactive)
GI50 [36]: > 100 µM (inactive)
GI50 [37]: > 100 µM (inactive)
GI50 [38]: > 100 µM (inactive)
GI50 [39]: > 100 µM (inactive)
GI50 [40]: > 100 µM (inactive)
GI50 [41]: > 100 µM (inactive)
GI50 [42]: > 100 µM (inactive)
GI50 [43]: > 100 µM (inactive)
GI50 [44]: > 100 µM (inactive)
GI50 [45]: > 100 µM (inactive)
GI50 [46]: > 100 µM (inactive)
GI50 [47]: > 100 µM (inactive)
GI50 [48]: > 100 µM (inactive)
GI50 [49]: > 100 µM (inactive)
GI50 [50]: > 100 µM (inactive)
GI50 [51]: > 100 µM (inactive)
GI50 [52]: > 100 µM (inactive)
GI50 [53]: > 100 µM (inactive)
GI50 [54]: > 100 µM (inactive)
GI50 [55]: > 100 µM (inactive)

CCOC(=O)c1nnsc1NN=C(C)C
GI50 [56]: > 100 µM (inactive)
GI50 [1]: > 100 µM (inactive)
GI50 [2]: > 100 µM (inactive)
GI50 [3]: > 100 µM (inactive)
GI50 [4]: > 100 µM (inactive)
GI50 [6]: > 100 µM (inactive)
GI50 [7]: > 100 µM (inactive)
GI50 [8]: > 100 µM (inactive)
GI50 [9]: > 100 µM (inactive)
GI50 [10]: > 100 µM (inactive)
GI50 [11]: > 100 µM (inactive)
GI50 [12]: > 100 µM (inactive)
GI50 [13]: > 100 µM
GI50 [14]: > 100 µM (inactive)
GI50 [15]: > 100 µM (inactive)
GI50 [16]: > 100 µM (inactive)
GI50 [17]: > 100 µM (inactive)
GI50 [18]: > 100 µM (inactive)
GI50 [20]: > 100 µM (inactive)
GI50 [21]: > 100 µM (inactive)
GI50 [22]: > 100 µM (inactive)
GI50 [23]: > 100 µM (inactive)
GI50 [25]: > 100 µM (inactive)
GI50 [26]: > 100 µM (inactive)
GI50 [27]: > 100 µM (inactive)
GI50 [28]: > 100 µM (inactive)
GI50 [29]: > 100 µM (inactive)
GI50 [30]: > 100 µM (inactive)
GI50 [31]: > 100 µM (inactive)
GI50 [32]: > 100 µM (inactive)
GI50 [34]: > 100 µM (inactive)
GI50 [35]: > 100 µM (inactive)
GI50 [36]: > 100 µM (inactive)
GI50 [37]: > 100 µM (inactive)
GI50 [38]: > 100 µM (inactive)
GI50 [39]: > 100 µM (inactive)
GI50 [40]: > 100 µM (inactive)
GI50 [41]: > 100 µM (inactive)
GI50 [42]: > 100 µM (inactive)
GI50 [57]: > 100 µM (inactive)
GI50 [44]: > 100 µM (inactive)
GI50 [45]: > 100 µM (inactive)
GI50 [46]: > 100 µM (inactive)
GI50 [47]: > 100 µM (inactive)
GI50 [48]: > 100 µM (inactive)
GI50 [49]: > 100 µM (inactive)
GI50 [50]: > 100 µM (inactive)
GI50 [51]: > 100 µM (inactive)
GI50 [52]: > 100 µM (inactive)
GI50 [53]: > 100 µM (inactive)
GI50 [54]: > 100 µM (inactive)
GI50 [58]: > 100 µM (inactive)
GI50 [55]: > 100 µM (inactive)
